In test [1] the target is BTK protein in human whole blood (Homo sapiens (Human), UniProt Q06187). The test can be described thus: Btk protein in human whole blood MSD ELISA based assay (Btk degradation). It is filed as cell-based. The following applies: human whole blood from healthy donors, 6 hours at 37° C., half maximal degradation concentration; read-out: hWB BTK DC50. How it is done: Btk protein degradation was tested using an Meso Scale Discovery-ELISA system (MSD-ELISA): (1) Test compounds were added to human whole blood; (2) human whole blood cells treated with test compounds were lysed; (3) lysed cells were treated with capture antibody, an antibody to Btk; (4) lysed cells were treated with […] to Btk; and (5) lysed cells were treated with anti-mouse antibody (tagged).
BTK protein in human whole blood, sequence (Q06187 whole entry): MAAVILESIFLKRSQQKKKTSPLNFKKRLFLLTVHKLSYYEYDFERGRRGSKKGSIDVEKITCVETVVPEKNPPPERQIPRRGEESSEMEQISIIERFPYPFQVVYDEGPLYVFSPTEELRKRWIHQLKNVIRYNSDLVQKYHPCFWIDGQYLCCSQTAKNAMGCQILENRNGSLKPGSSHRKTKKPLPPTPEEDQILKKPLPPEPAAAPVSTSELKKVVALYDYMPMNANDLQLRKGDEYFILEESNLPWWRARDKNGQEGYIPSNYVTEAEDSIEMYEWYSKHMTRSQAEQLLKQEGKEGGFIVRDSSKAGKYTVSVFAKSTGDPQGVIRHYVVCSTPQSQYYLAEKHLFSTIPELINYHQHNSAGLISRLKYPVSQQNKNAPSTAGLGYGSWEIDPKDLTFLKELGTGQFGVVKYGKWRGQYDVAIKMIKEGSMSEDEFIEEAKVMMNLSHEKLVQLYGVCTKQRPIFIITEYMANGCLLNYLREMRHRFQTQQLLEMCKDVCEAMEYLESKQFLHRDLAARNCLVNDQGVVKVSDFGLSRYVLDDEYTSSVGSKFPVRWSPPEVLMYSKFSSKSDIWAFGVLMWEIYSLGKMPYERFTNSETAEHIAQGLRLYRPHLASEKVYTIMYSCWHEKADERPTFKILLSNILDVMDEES
Specifically, about 80 μl of fresh human whole blood from healthy donors was transferred into each well of a 96-well V-bottom plate (Costar, Cat No.3894). Using a TECANTM D300e Digital Dispenser (Tecan)), 1:4 serially diluted compounds [(8 pt assay) in DMSO solution (final 0.2%) starting at 3 μM top concentration], were added in duplicate. Thereafter, plates were placed in a 37° C. incubator and incubated for 6 hours.
At the end of incubation, 80 μl of 2× CST lysis buffer (Cell Signaling Technology, Cat No. 9803), prepared from a 10× stock solution, was added per well to lyse the blood. Plates were then sealed with a plate sealer and the samples were frozen overnight at −80° C.
Total amount of BTK protein remaining in the blood samples after compound treatment was measured using MSD-ELISA. After thawing the frozen plates, blood lysates were mixed thoroughly and transferred to small spot high-bind MSD plates (Meso Scale Discovery, Cat No. L45XB-3) and coated with capturing antibody, rabbit anti-human BTK (D3H5) (Cell Signaling Technology, Cat No. 8547CF). Thereafter, primary detection antibody, mouse anti-human BTK monoclonal antibody, (BD Biosciences, Cat No. 611117) and secondary detection antibody, anti-mouse SULFO-TAG (Meso Scale Discovery, Cat No. R32AC-1) were added. The assay plates were read on an MSD S600 plate reader by the addition of 2× MSD read buffer (Meso Scale Discovery, R92TC-1). All reagent transfers, including blood lysis, was conducted using a Biomed i7 liquid handler. From the dose response curves, DC50 values were calculated by averaging data from duplicate experiments. and Curve fitting was done by non-linear regression using GraphPad Prism. The DC50 values are reported in Table 2 in the hWB BTK DC50 (nM) column The Dmax values represent the maximum amount of BTK degradation observed upon compound treatment compared to DMSO only treated samples. The dMax (%) values are reported in Table 2 in the hWB BTK dMax (%) column.
Background: In an ELISA, binding on a coated surface is turned into a signal by an enzyme label.

The target in a further test is BTK in mouse bone marrow (Mus musculus (Mouse), UniProt P35991). The experiment in a line: Mouse Bone Marrow Assay (MSD ELISA of BTK degradation in mouse bone marrow). It is filed as in vivo. The following applies: female C57BL/6J mice, single dose of Dose A, bone marrow collected after 24 hours, % remaining BTK in vehicle versus treated samples. As for the experimental part: Female C57BL/6J mice (Jackson Laboratories) were used for this study. Compounds or vehicle/control were prepped with EtOH; PEG-400; Phosal 53 MCT (10:30:60, v/v). Four mice were tested per compound or vehicle/control. On Day 1, mice were administered a single dose of Dose A. On Day 2 (after 24 hours), tissue (bone marrow) was collected from one hind leg per mouse.
BTK in mouse bone marrow, sequence (P35991 whole entry): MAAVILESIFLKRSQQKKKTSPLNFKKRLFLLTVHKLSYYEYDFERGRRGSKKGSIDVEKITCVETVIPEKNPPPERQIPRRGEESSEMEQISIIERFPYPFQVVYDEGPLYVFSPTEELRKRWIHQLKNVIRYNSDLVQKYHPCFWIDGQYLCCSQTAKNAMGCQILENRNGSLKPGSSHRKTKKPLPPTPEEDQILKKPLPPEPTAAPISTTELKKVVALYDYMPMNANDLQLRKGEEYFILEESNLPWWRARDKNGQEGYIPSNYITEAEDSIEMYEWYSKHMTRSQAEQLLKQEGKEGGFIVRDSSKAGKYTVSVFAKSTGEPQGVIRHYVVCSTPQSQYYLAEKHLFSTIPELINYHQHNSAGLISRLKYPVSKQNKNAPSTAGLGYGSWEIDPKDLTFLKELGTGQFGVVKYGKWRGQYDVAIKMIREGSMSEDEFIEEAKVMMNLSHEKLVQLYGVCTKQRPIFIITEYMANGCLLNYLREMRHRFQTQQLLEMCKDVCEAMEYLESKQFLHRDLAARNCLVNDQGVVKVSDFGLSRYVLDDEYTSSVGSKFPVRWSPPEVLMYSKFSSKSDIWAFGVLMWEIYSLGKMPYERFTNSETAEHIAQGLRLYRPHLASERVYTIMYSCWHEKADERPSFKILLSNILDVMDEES
An MSD (Meso Scale Discovery) ELISA (enzyme-linked immunosorbent assay) based assay was used to determine BTK degradation in mouse bone marrow. The following materials and equipment were used: 10% NP40 solution (nonionic polyoxyethylene surfactant, ThermoFisher, cat no. 28324); protease inhibitor mini tablet (Roche, cat no. 05 892 970 001); PhosphoSTOP™ tablet (Roche, cat no. 04 906 837 001); Pierce™ BCA Protein Assay Kit (Thermofisher, Cat No. 23225); Precellys® 2 mL lysing tube with 2.8 mm beads (VWR, cat no. 10032-756); Bertin Precellys® 24/Cryolys ® cooling system; 96-well MSD streptavidin pre-coated plates (MSD, cat no. L15SA-1); MSD Blocker A (MSD, cat no. R93BA-4); capture antibody, biotinylated BTK mAb (BD Biosciences, cat no. 624008; custom order); primary detection antibody, BTK RpAb (rabbit polyclonal antibody, CST, cat no. 8547S, D3H5 clone); secondary detection antibody, anti-Rabbit-Sulfo-Tag (MSD, cat no. R32AB-1); read Buffer, 4× (MSD, cat no. R92TC-1); recombinant BTK protein (Thermofisher, cat no. PR5442A); MSD Tris Wash Buffer (10×) (MSD, cat no. R61TX-1); PBS (phosphate-buffered saline); deionized water (diH2O); Lysis Buffer [0.2% NP40 in PBS+Protease Inhibitor tablet (1 tablet/10 mL)+PhosphoSTOP tablet (1 tablet/10 mL)]; 3% MSD Blocker A [MSD Blocker A+450 mL diH2O+50 mL]; and 10× MSD Tris Wash Buffer.
Lysis buffer [(PBS+0.2% NP40+PI (protease inhibitor)+PhosphoSTOP)]was prepared and put on ice until it was fully cold. Ice cold lysis buffer […] was added to each Precellys® tube containing beads and bone marrow sample. Sample tubes were transferred into Precellys® machine and homogenized using 5000 rpm -2×20 seconds. The sample lysates were centrifuged at 14,000 rpm for 20 minutes at 4° C. after homogenizing.
The protein concentration was determined using Pierce™ BCA Protein Assay Kit following manufacturer's recommended protocol. The protein normalized working solution was prepared, using 30 μg protein per sample lysate for assay.
A 300 ng/ml working stock solution of recombinant BTK protein in lysis buffer was prepared, and the sample was serially diluted at 3-fold dilution (10-point assay, highest concentration was 300 ng/mL and lowest concentration was 0.015 ng/mL)
MSD plate coating: Coating antibody (biotinylated-BTK mAb) stock solution was prepared at 1 μg/mL in PBS buffer. 50 μL/well capture antibody (Biotinylated BTK mAb) solution was added, and the plates were shaken gently at ambient temperature for two hours. The plates were washed 3 times with 1× MSD Tris Wash Buffer in a plate washer (300 μL/well), and the plates were blocked with 3% MSD Blocker A (150 μL/well). The plates were incubated for an additional 1-2 hours at ambient temperature with gentle shaking. The plates were washed 3 times with 1× MSD wash buffer using plate washer. Bone marrow lysates (30 μg) at a final volume of 50 μL/well were added into the plates. The serially diluted standard samples were added to the same plates at a final volume of 50 μL/well. The plates were incubated overnight at 4° C. with gentle shaking.
The plates were washed three times with 1× MSD wash buffer (prepared from 10× concentration buffer) using plate washer. Primary detection antibody at 50 μL/well was added (BTK RpAb; 1:1000 dilution in 1% MSD Blocker A). The plates were incubated for two hours at ambient temperature with gentle shaking. The plates were washed three times with 1× MSD wash buffer using plate washer. Anti-Rabbit-SULFO-TAG secondary antibodies (50 μl/well) were added, 1:500 diluted in 1% MSD Blocker A, and the plates were incubated for one to two hours at ambient temperature. […]

As usually defined, the DC50 is the concentration at which degradation of the target reaches its halfway point. In the case of `Cc1cc(-c2cc(Nc3ccc(N4CCN(CCc5ccc(N6CCC(=O)NC6=O)cc5)C[C@@H]4C)cn3)ncn2)ccc1[C@@H](C)NC(=O)c1nc(C(C)(C)C)no1` [Example 1, 3-tert-butyl-N-[(1R)-1-{4-[6-({5-[(2S)-4-{2-[4-(2,4-dioxo-1,3-diazinan-1-yl)phenyl]ethyl}-2-methylpiperazin-1-yl]pyridin-2-yl}amino)pyrimidin-4-yl]-2-methylphenyl}ethyl]-1,2,4-oxadiazole-5-carboxamide], in test [1], the DC50 was determined as 4.08 nM. Further, the “Mouse Bone Marrow (%), % remaining BTK” value at BTK in mouse bone marrow is recorded as 11%.

As for `Cc1cc(-c2cc(Nc3ccc(N4CCN(CCc5ccc(N6CCC(=O)NC6=O)cc5)C[C@H]4C)cn3)ncn2)ccc1[C@@H](C)NC(=O)c1nc(C(C)(C)C)no1` [Example 2, 3-tert-butyl-N-[(1R)-1-{4-[6-({5-[(2R)-4-{2-[4-(2,4-dioxo-1,3-diazinan-1-yl)phenyl]ethyl}-2-methylpiperazin-1-yl]pyridin-2-yl}amino)pyrimidin-4-yl]-2-methylphenyl}ethyl]-1,2,4-oxadiazole-5-carboxamide], the DC50 in test [1] turned out to be 5.93 nM. Besides, at BTK in mouse bone marrow, the “Mouse Bone Marrow (%), % remaining BTK” value is reported as 12%.

Turning to `Cc1cc(-c2cc(Nc3ccc(N4CCN(CCc5ccc(N6CCC(=O)NC6=O)cc5)CC4)cn3)ncn2)ccc1[C@@H](C)NC(=O)c1nc(C(C)(C)C)no1` [Example 3, 3-tert-butyl-N-{(1R)-1-[4-(6-{[5-(4-{2-[4-(2,4-dioxo-1,3-diazinan-1-yl)phenyl]ethyl}piperazin-1-yl)pyridin-2-yl]amino}pyrimidin-4-yl)-2-methylphenyl]ethyl}-1,2,4-oxadiazole-5-carboxamide], the DC50 in test [1] came out at 2.88 nM. For the same compound, the “Mouse Bone Marrow (%), % remaining BTK” value on BTK in mouse bone marrow worked out at 22%.

Take `Cc1cc(-c2cc(Nc3ccc(N4CCN(CCc5ccc(N6CCC(=O)NC6=O)c(F)c5)C[C@@H]4C)cn3)ncn2)ccc1[C@@H](C)NC(=O)c1nc(C(C)(C)C)no1` [Example 4, 3-tert-butyl-N-[(1R)-1-{4-[6-({5-[(2S)-4-{2-[4-(2,4-dioxo-1,3-diazinan-1-yl)-3-fluorophenyl]ethyl}-2-methylpiperazin-1-yl]pyridin-2-yl}amino)pyrimidin-4-yl]-2-methylphenyl}ethyl]-1,2,4-oxadiazole-5-carboxamide]: the DC50 in test [1] stood at 7.62 nM. Further, the “Mouse Bone Marrow (%), % remaining BTK” value at BTK in mouse bone marrow came out at 13%.

On to `Cc1cc(-c2cc(Nc3ccc(N4CCN(CCc5ccc(N6CCC(=O)NC6=O)c(F)c5)C[C@H]4C)cn3)ncn2)ccc1[C@@H](C)NC(=O)c1nc(C(C)(C)C)no1` [Example 5, 3-tert-butyl-N-[(1R)-1-{4-[6-({5-[(2R)-4-{2-[4-(2,4-dioxo-1,3-diazinan-1-yl)-3-fluorophenyl]ethyl}-2-methylpiperazin-1-yl]pyridin-2-yl}amino)pyrimidin-4-yl]-2-methylphenyl}ethyl]-1,2,4-oxadiazole-5-carboxamide], for which the DC50 in test [1] amounted to 6 nM. Moreover, the “Mouse Bone Marrow (%), % remaining BTK” value on BTK in mouse bone marrow is 12%.

As for `CC[C@H]1CN(CCc2ccc(N3CCC(=O)NC3=O)cc2)CCN1c1ccc(Nc2cc(-c3ccc([C@@H](C)NC(=O)c4nc(C(C)(C)C)no4)c(C)c3)ncn2)nc1` [Example 6, 3-tert-butyl-N-[(1R)-1-{4-[6-({5-[(2S)-4-{2-[4-(2,4-dioxo-1,3-diazinan-1-yl)phenyl]ethyl}-2-ethylpiperazin-1-yl]pyridin-2-yl}amino)pyrimidin-4-yl]-2-methylphenyl}ethyl]-1,2,4-oxadiazole-5-carboxamide], the DC50 in test [1] is 2.45 nM. The “Mouse Bone Marrow (%), % remaining BTK” value at BTK in mouse bone marrow is reported as 19%.

Turning to `CC[C@H]1CN(CCc2ccc(N3CCC(=O)NC3=O)c(F)c2)CCN1c1ccc(Nc2cc(-c3ccc([C@@H](C)NC(=O)c4nc(C(C)(C)C)no4)c(C)c3)ncn2)nc1` [Example 7, 3-tert-butyl-N-[(1R)-1-{4-[6-({5-[(2S)-4-{2-[4-(2,4-dioxo-1,3-diazinan-1-yl)-3-fluorophenyl]ethyl}-2-ethylpiperazin-1-yl]pyridin-2-yl}amino)pyrimidin-4-yl]-2-methylphenyl}ethyl]-1,2,4-oxadiazole-5-carboxamide], in test [1], the DC50 stood at 18.7 nM. Besides, the “Mouse Bone Marrow (%), % remaining BTK” value at BTK in mouse bone marrow stood at 22%.

Regarding `CC[C@@H]1CN(CCc2ccc(N3CCC(=O)NC3=O)cc2)CCN1c1ccc(Nc2cc(-c3ccc([C@@H](C)NC(=O)c4nc(C(C)(C)C)no4)c(C)c3)ncn2)nc1` [Example 8, 3-tert-butyl-N-[(1R)-1-{4-[6-({5-[(2R)-4-{2-[4-(2,4-dioxo-1,3-diazinan-1-yl)phenyl]ethyl}-2-ethylpiperazin-1-yl]pyridin-2-yl}amino)pyrimidin-4-yl]-2-methylphenyl}ethyl]-1,2,4-oxadiazole-5-carboxamide], in test [1], the DC50 is 4.04 nM. For the same compound, on BTK in mouse bone marrow, the “Mouse Bone Marrow (%), % remaining BTK” value is reported as 30%.

Regarding `Cc1cc(-c2cc(Nc3ccc(N4CCN(CCc5ccc(N6CCC(=O)NC6=O)cc5)CC4(C)C)cn3)ncn2)ccc1[C@@H](C)NC(=O)c1nc(C(C)(C)C)no1` [Example 9, 3-tert-butyl-N-{(1R)-1-[4-(6-{[5-(4-{2-[4-(2,4-dioxo-1,3-diazinan-1-yl)phenyl]ethyl}-2,2-dimethylpiperazin-1-yl)pyridin-2-yl]amino}pyrimidin-4-yl)-2-methylphenyl]ethyl}-1,2,4-oxadiazole-5-carboxamide], in test [1], the DC50 amounted to 9.61 nM. Also, the “Mouse Bone Marrow (%), % remaining BTK” value at BTK in mouse bone marrow was 31%.

(Values after patent publication US20240109877A1, “PYRIMIDINES FOR DEGRADING BRUTON'S TYROSINE KINASE” (AbbVie Inc., priority 2022, published 2024).)
